Test results as given in patent US11959104B2, “Methods of differentiating stem cell-derived ectodermal lineage precursors” (MEMORIAL SLOAN-KETTERING CANCER CENTER, priority 2016, dated 2024).

Tests used:
[1] = tested on: rodent GSK3β homologs; conditions: cited from earlier work
[2] = tested on: hPSCs; test: Toxicity of KSR-protocol small molecule concentrations in E6 differentiation; format: cell-based, human; conditions: original KSR-protocol concentration used in E6
Excerpt: To transition these protocols into the more defined E6 media, we adapted hPSCs in E8 for multiple passages and simply replaced the KSR-based medium with an E6 based differentiation while maintaining factors and concentrations as described previously to trigger the 4 major ectodermal lineages (FIG. 9A). […] After determining an optimal non-toxic concentration for each of the small molecules we observed that NE formation under E6 conditions was equivalent to that obtained with KSR-based conditions. […] We compared the efficiency of generating PAX6 positive cells using either no small molecules, using dSMADi or using the single TGFβ inhibitor SB431542 (SB). We found robust PAX6 expression in the absence of dSMADi (˜40% of total cells on day 12 post induction). However, the percentage of cells expressing PAX6 was further improved upon addition of SB or dSMADi to nearly 90% and 80%, respectively (FIGS. 1E and 9B).

[3] = tested on: SIX1 placode cells; test: Trigeminal placode induction by Wnt activation pulse; format: cell-based, human; conditions: additional pulse after the BMP pulse
Procedure: (§1) All differentiations starting from E8 were dissociated into single cells using EDTA and replated at high density in E8 with the ROCK inhibitor (Tocris). Cells were typically seeded at a density of 200,000 cells/cm^2 on Matrigel coated dishes. Switching from E8 to E6 triggered differentiations (i.e. d0). Neuroectoderm (NE) formation was generated by culturing the cells in E6 with […] and 500 nM LDN until d12. Neural Crest (NC) was first treated with […], 600 nM CHIR and 1 ng/ml BMP4 from d0-d2. At d2, cells were maintained in […] with 1.5 uM CHIR until d12. Lens placode was first treated with […] and 5 ng/ml BMP4 from d0-d2. At d2, cells were maintained in […] with 100 ng/ml FGF2 until d12. Trigeminal placode was first treated with […] and 5 ng/ml BMP4 from d0-d2. At d2, CHIR was added to the SB and BMP4 until d4. Finally, non-neural ectoderm (NNE) was treated with 10 nM SB, 10 nM SU5402 and 20 ng/ml BMP4 until d12.

[4] = tested on: human pluripotent stem cells; test: Neuroectoderm induction in E6 media, PAX6 positive cells (PAX6::H2B-GFP reporter); format: cell-based; conditions: day 12 post induction, without small molecules ~40%
Procedure: as §1, with “H9 ESCs (WA09) and modified reporter lines (passage 40-70) were cultured in the Knockout Serum Replacement (KSR) (Life Technologies) based media (DMEM-F12, 20% KSR, L-glutamate and 10 ng/ml FGF2) on mouse embryonic fibroblast feeders. KSR hPSCs were directly transferred to the E8 media (Life Technologies) coated with Vitronectin and adapted for 4-5 passages before differentiations were performed. KSR based differentiations were performed as previously described, neuroectoderm and neural crest (Mica et al., 2013), and placode and non-neural ectoderm ([…] et al., 2013). All” for “All”, “At d2, CHIR was added to the SB and BMP4 until d4. Finally, non-neural ectoderm (NNE) was treated with 10 nM SB, 10 nM SU5402 and 20 ng/ml BMP4 until d12.” left out

[5] = tested on: hPSC; test: Cranial placode induction in E6 media, SIX1 positive cells, FGF addition; format: cell-based, human; conditions: added to E6 culture comprising SB431542 and BMP
Procedure: as §1

[6] = tested on: Six1::H2B-GFP reporter line; test: LOPAC small molecule screen and validation for enhanced CP induction; conditions: CP protocol after the addition of FGF2
Procedure: All differentiations starting from E8 were dissociated into single cells using EDTA and replated at high density in E8 with the ROCK inhibitor (Tocris). Cells were typically seeded at a density of 200,000 cells/cm^2 on Matrigel coated dishes. Switching from E8 to E6 triggered differentiations (i.e. d0). Neuroectoderm (NE) formation was generated by culturing the cells in E6 with 10 nM SB and 500 nM LDN until d12. Neural Crest (NC) was first treated with 10 nM SB, 600 nM CHIR and 1 ng/ml BMP4 from d0-d2. […] Lens placode was first treated with 10 nM SB and 5 ng/ml BMP4 from d0-d2. At d2, cells were maintained in 10 nM SB with 100 ng/ml FGF2 until d12. Trigeminal placode was first treated with 10 nM SB and 5 ng/ml BMP4 from d0-d2. At d2, CHIR was added to the SB and BMP4 until d4. Finally, non-neural ectoderm (NNE) was treated with 10 nM SB, 10 nM SU5402 and 20 ng/ml BMP4 until d12.

Cc1c[nH]c(-c2cnc(NCCNc3ccc(C#N)cn3)nc2-c2ccc(Cl)cc2Cl)n1 [CHIR99021, 6-(2-(4-(2,4-dichlorophenyl)-5-(4-methyl-1H-imidazol-2-yl)pyrimidin-2-ylamino)ethylamino)nicotinonitrile]
IC50 values against rodent GSK3β homologs [1]: nanomolar | cell killing during differentiation [2]: effectively killed the cells | PAX3 expression in SIX1 placode cells [3]: capable of triggering PAX3 expression

NC(=O)c1ccc(-c2nc(-c3ccc4c(c3)OCO4)c(-c3ccccn3)[nH]2)cc1 [SB431542, 4-[4-(1,3-benzodioxol-5-yl)-5-(2-pyridinyl)-1H-imidazol-2-yl]-benzamide]
percentage of cells expressing PAX6 [4]: ~90%

FGF2: activator of FGF signaling
SIX1 positive CP cells [5]: ~50% | Six1 positive cells [6]: 34%
